Here are results for one compound from publication PMC10223470 (Molecules, 2023).

The structures appear in SMILES notation.

For one assay, the system named is mice. Nature of the assay: Elevated plus-maze (EPM) test. The format is in vivo. The note with it: 25, 50 and 75 mg/kg i.p., 60 min before the test. As to the method:
The experiments were carried out on 6 weeks old naive Swiss male mice (Experimental Medicine Center (OMD), Lublin, Poland), weighing 28–30 g. The cages with mice were located in air-conditioned rooms maintaining the ambient temperature within the range of 23–25 °C. The animals were provided with a natural 12 h day/night cycle, replicating the day and night mode. Each testing group was represented by 8–10 animals, depending on the research schedule. All experiments were conducted according to the National Institute of Health Guidelines for the Care and Use of Laboratory Animals (8th edition) and to the European Community Council Directive for the Care and Use of Laboratory Animals of 22 September 2010 (2010/63/EU) and were approved by the Local Ethical Committee (number of ethical approval: 147/2018).
Compound 17 (25, 50, 75 mg/kg) was suspended in 1% Tween 80 in saline solution and was administered intraperitoneally (i.p.) 60 min before the test. Diazepam (DZ, Relanium, Polfa, Poland) at a dose of 1 mg/kg was diluted in 0.9% saline containing 1% Tween 80 and was administered subcutaneously (s.c.), 60 min before the test. Imipramine hydrochloride (30 mg/kg, Sigma-Aldrich was administered intraperitoneally (i.p.) 60 min before the test. D-amphetamine sulfate (3 mg/kg; Sigma-Aldrich, USA) was given subcutaneously (s.c.). Prior to administration, the agent was dissolved in saline and injected 30 min before the test. Control animals received an (i.p.) or (s.c.) injection of a respective vehicle. All compounds were injected in a manner generally accepted in experimental pharmacology, in an amount of 10 mL/kg body weight.
The experiment was carried out on mice according to the method of Lister. […] The number of entries into the open arms and the time spent in these arms were scored for a 5-min test period. […] The following measures were obtained from the test: the total number of arm entries, the percentage of entries into the open arms, the time spent in the open arms expressed as a percentage of the time spent in both the open and closed arms. […]

The target in another assay is T1, human 5-HT1A receptor (Homo sapiens, UniProt P08908).
T1 construct: expressed in transfected cells; host or cells: HEK293
T1 sequence (P08908 1-422): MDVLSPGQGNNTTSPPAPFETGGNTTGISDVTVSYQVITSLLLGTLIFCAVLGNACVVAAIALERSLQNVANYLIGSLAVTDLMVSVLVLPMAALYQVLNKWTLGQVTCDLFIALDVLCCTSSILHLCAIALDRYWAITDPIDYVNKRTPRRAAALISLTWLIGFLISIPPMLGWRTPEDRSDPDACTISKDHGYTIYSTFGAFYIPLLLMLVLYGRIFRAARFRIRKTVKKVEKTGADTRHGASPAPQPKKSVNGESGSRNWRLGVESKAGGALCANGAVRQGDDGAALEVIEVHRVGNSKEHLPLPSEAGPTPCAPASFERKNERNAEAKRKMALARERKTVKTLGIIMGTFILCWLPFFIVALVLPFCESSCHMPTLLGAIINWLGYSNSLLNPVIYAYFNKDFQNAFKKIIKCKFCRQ
The assay is described as follows: Competition radioligand binding at human 5-HT1A receptor ([3H]-8-OH-DPAT). The note with it: mean ± SEM of 2 independent experiments, read-out: hu5-HT1A % inh. at 10 µM. As to the method:
(§1) Competition radioligand binding assays were performed on membranes isolated from cell lines stably expressing the cloned human receptors, which were either in-house or commercially available. […] Assays (250 μL assay final volume) were carried out in 96-well polypropylene plates in duplicate. In short, the suspension of appropriate membrane protein was incubated in an assay buffer with the addition of the corresponding radioligand, in the presence or absence of a tested compound or reference compound. […] After the incubation, the content of the test plates was transferred to 96 well plates with glass fiber filter GF/B or GF/C, previously pretreated with polyethyleneimine (PEI), and rapidly filtered with the use of vacuum, followed by rapid washing with cold (4 °C) wash buffer. After that, the filter plates were dried at 60 °C for 1 h. Then, 30 μL of liquid scintillation cocktail (UniverSol-ES, MP Biomedicals, Solon, OH, USA) was added to each well of the filter plates, and the radioactivity was measured in a MicroBeta^2 microplate scintillation counter (PerkinElmer, Madrid, Spain).
(§2) Competition binding curves were fitted to a one-site competition binding model (Fit Ki) with the use of Prism 7 software (GraphPad, San Diego, CA, USA). logKi (log of the equilibrium dissociation constant (Ki)) values were obtained after constraining the concentration of radioligand employed in the assay and its dissociation constant (KD) as determined in saturation radioligand binding assays.

For a further assay, the target named is T2, human D2S receptor (Homo sapiens, UniProt P14416).
T2 construct: expressed in transfected cells; host or cells: CHO-K1
T2 sequence (P14416 1-414 isoform P14416-2): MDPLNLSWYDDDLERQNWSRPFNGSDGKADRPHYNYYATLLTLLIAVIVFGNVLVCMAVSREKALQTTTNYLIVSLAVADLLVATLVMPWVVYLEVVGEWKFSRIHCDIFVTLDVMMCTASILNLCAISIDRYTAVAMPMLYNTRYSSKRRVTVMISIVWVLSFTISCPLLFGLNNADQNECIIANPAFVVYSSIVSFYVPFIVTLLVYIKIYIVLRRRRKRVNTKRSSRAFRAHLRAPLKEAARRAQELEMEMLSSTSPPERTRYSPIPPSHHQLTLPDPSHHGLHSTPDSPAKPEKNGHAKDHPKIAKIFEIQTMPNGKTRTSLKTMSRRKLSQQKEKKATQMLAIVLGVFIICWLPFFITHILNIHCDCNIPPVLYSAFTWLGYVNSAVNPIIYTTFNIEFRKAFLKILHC
Nature of the assay: Competition radioligand binding at human D2 receptor ([3H]-Spiperone, CHO-K1 membranes). To be noted: mean ± SEM of 2–3 independent experiments in duplicate; read-out: huD2 Ki. The protocol:
Experiments were carried out in membranes isolated from a CHO-K1 cell line stably overexpressing the cloned human D2S receptor.
as §1, §2

In another assay the target is T3, human 5-HT2A receptor (Homo sapiens, UniProt P28223).
T3 construct: expressed in transfected cells; host or cells: CHO-K1
T3 sequence (P28223 whole entry): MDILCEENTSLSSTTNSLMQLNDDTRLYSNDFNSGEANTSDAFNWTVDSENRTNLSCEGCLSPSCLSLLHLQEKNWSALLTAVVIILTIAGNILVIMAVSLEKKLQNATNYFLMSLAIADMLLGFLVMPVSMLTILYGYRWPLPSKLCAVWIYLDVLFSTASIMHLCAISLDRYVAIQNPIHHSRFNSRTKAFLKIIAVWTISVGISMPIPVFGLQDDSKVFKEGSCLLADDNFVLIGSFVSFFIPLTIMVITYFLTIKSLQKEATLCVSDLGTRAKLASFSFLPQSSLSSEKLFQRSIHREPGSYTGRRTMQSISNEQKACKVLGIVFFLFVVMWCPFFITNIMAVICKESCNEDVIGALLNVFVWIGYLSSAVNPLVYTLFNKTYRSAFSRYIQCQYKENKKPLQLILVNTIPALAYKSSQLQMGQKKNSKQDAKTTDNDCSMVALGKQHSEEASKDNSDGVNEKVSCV
The assay is described as follows: Competition radioligand binding at human 5-HT2A receptor ([3H]-Ketanserin). To be noted: mean ± SEM of 2 independent experiments, read-out: hu5-HT2A % inh. at 10 µM. The protocol: as §1, §2

As to `O=C(CCN1C(=O)CSc2ccccc21)Nc1ccc(Cl)cc1` [Compound 17, N-(4-Chlorophenyl)-3-(3-oxo-2,3-dihydro-4H-benzo[b][1,4]thiazin-4-yl)propanamide], in the assay with mice, the “percentage of entries into open arms” value is reported as “did not change” and the “percentage of the time spent in open arms” value is listed as “did not change”. In addition, the inhibition at 10 µM at human 5-HT1A receptor was 29 ± 9%. In addition, the Ki at human D2S receptor was determined as 381 ± 48 nM. Further, on human 5-HT2A receptor, the inhibition at 10 µM was found to be 28 ± 1%.
